Data taken from ChEMBL document CHEMBL1132301, “Carbonic anhydrase inhibitors. Synthesis of water-soluble, topically effective, intraocular pressure-lowering aromatic/heterocyclic sulfonamides containing cationic or anionic moieties: is the tail more important than the ring?” (J Med Chem, 1999).

target: T1, Carbonic anhydrase 4 (Bos taurus, UniProt Q95323)
T1 sequence (Q95323 whole entry): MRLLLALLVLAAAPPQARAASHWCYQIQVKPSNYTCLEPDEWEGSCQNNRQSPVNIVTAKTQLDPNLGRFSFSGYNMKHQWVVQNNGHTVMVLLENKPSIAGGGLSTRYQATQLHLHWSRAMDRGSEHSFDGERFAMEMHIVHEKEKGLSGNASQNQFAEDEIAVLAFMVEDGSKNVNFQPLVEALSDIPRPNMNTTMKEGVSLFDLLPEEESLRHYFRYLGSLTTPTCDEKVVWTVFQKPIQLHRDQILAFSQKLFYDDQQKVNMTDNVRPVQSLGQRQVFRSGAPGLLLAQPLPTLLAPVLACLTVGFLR
Description: Inhibitory activity against bovine lung microsomes carbonic anhydrase isozyme IV (bCA IV).

Ki [µM]	SMILES
0.07	NS(=O)(=O)c1ccc(N2C(=O)c3cccnc3C2=O)c(I)c1
0.055	NS(=O)(=O)c1cc(S(N)(=O)=O)c(NC(=O)c2cccc(C(=O)O)n2)c(Cl)c1Cl
0.019	Nc1ccc2nc(S(N)(=O)=O)sc2c1
0.066	Nc1ccc(S(N)(=O)=O)cc1Br
0.009	NS(=O)(=O)c1nc2ccc(N3C(=O)c4cccnc4C3=O)cc2s1
0.069	NS(=O)(=O)c1ccc(NC(=O)c2cccc(C(=O)O)n2)c(Br)c1
0.079	NS(=O)(=O)c1ccc(CN2C(=O)c3cccnc3C2=O)cc1
0.18	Nc1ccc(S(N)(=O)=O)cc1F
0.305	NS(=O)(=O)c1cccc(N2C(=O)c3cccnc3C2=O)c1

SMILES	Ki [µM]
NS(=O)(=O)c1nc2ccc(ONC(=O)c3cccc(C(=O)O)n3)cc2s1	0.013
NS(=O)(=O)c1nc2ccc(NC(=O)c3cccc(C(=O)O)n3)cc2s1	0.011
NS(=O)(=O)c1ccc(CCN2C(=O)c3cccnc3C2=O)cc1	0.054
NS(=O)(=O)c1cc(S(N)(=O)=O)c(N2C(=O)c3cccnc3C2=O)cc1Cl	0.06
NS(=O)(=O)c1nc2ccc(OCCONC(=O)c3cccc(C(=O)O)n3)cc2s1	0.01

target: T2, Carbonic anhydrase 2 (Homo sapiens, UniProt P00918)
Description: Inhibitory activity against human recombinant carbonic anhydrase II

SMILES	Ki [µM]
NS(=O)(=O)c1nc2ccc(ONC(=O)c3cccc(C(=O)O)n3)cc2s1	0.002
NS(=O)(=O)c1ccc(N2C(=O)c3cccnc3C2=O)c(I)c1	0.033
NS(=O)(=O)c1cc(S(N)(=O)=O)c(NC(=O)c2cccc(C(=O)O)n2)c(Cl)c1Cl	0.01
NS(=O)(=O)c1nc2ccc(NC(=O)c3cccc(C(=O)O)n3)cc2s1	0.003
NS(=O)(=O)c1ccc(CCN2C(=O)c3cccnc3C2=O)cc1	0.009
NS(=O)(=O)c1ccc(CN2C(=O)c3cccnc3C2=O)cc1	0.042
NS(=O)(=O)c1nc2ccc(OCCONC(=O)c3cccc(C(=O)O)n3)cc2s1	0.003

target: T3, Carbonic anhydrase 1 (Homo sapiens, UniProt P00915)
T3 sequence (P00915 whole entry): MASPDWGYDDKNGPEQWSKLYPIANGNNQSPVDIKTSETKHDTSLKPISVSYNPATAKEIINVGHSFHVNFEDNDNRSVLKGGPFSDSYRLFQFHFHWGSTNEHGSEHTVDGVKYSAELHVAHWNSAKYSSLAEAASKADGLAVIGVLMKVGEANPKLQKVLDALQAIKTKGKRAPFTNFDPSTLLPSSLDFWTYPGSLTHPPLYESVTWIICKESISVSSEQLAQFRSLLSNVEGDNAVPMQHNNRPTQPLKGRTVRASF
Description: Inhibition of human cloned Carbonic anhydrase I (hCA I,cytosolic form)

Ki [µM]	SMILES
0.07	Nc1ccc2nc(S(N)(=O)=O)sc2c1
0.012	NS(=O)(=O)c1nc2ccc(N3C(=O)c4cccnc4C3=O)cc2s1
20	NS(=O)(=O)c1cccc(N2C(=O)c3cccnc3C2=O)c1

SMILES	Ki [µM]
NS(=O)(=O)c1cc(S(N)(=O)=O)c(N2C(=O)c3cccnc3C2=O)cc1Cl	0.6

target: T2, Carbonic anhydrase 2; remark: another data set of the same source
Description: Inhibitory activity against human cloned Carbonic anhydrase II (hCA II, cytosolic form).

Ki [µM]	SMILES
0.004	NS(=O)(=O)c1nc2ccc(N3C(=O)c4cccnc4C3=O)cc2s1
0.25	NS(=O)(=O)c1cccc(N2C(=O)c3cccnc3C2=O)c1

SMILES	Ki [µM]
NS(=O)(=O)c1cc(S(N)(=O)=O)c(N2C(=O)c3cccnc3C2=O)cc1Cl	0.009

target: T3, Carbonic anhydrase 1; remark: another data set of the same source
Description: Inhibitory activity against human cloned carbonic anhydrase isozyme I (hCA I, cytosolic form).

SMILES	Ki [µM]
NS(=O)(=O)c1nc2ccc(ONC(=O)c3cccc(C(=O)O)n3)cc2s1	0.016
NS(=O)(=O)c1ccc(N2C(=O)c3cccnc3C2=O)c(I)c1	0.61
NS(=O)(=O)c1cc(S(N)(=O)=O)c(NC(=O)c2cccc(C(=O)O)n2)c(Cl)c1Cl	0.45
NS(=O)(=O)c1nc2ccc(NC(=O)c3cccc(C(=O)O)n3)cc2s1	0.018
NS(=O)(=O)c1ccc(CCN2C(=O)c3cccnc3C2=O)cc1	0.845
NS(=O)(=O)c1ccc(NC(=O)c2cccc(C(=O)O)n2)c(Br)c1	0.575
NS(=O)(=O)c1nc2ccc(OCCONC(=O)c3cccc(C(=O)O)n3)cc2s1	0.015
